Data reported in US11007270B2, “Polymer-semaxanib moiety conjugates” (Nektar Therapeutics, priority 2010, dated 2021).
Blank lines part the entries; values can stand above or below the molecule they belong to.

What was measured:
c-Kit = c-Kit (Homo sapiens, UniProt P10721); experiment: c-Kit tyrosine kinase inhibition, Caliper screening (fluorescent substrate phosphorylation, electrophoretic separation); type: biochemical; settings: for IC50: averages of replicate wells; for c-Kit Fold: fold of IC50 relative to sunitinib
Chain of c-Kit (P10721 26-976): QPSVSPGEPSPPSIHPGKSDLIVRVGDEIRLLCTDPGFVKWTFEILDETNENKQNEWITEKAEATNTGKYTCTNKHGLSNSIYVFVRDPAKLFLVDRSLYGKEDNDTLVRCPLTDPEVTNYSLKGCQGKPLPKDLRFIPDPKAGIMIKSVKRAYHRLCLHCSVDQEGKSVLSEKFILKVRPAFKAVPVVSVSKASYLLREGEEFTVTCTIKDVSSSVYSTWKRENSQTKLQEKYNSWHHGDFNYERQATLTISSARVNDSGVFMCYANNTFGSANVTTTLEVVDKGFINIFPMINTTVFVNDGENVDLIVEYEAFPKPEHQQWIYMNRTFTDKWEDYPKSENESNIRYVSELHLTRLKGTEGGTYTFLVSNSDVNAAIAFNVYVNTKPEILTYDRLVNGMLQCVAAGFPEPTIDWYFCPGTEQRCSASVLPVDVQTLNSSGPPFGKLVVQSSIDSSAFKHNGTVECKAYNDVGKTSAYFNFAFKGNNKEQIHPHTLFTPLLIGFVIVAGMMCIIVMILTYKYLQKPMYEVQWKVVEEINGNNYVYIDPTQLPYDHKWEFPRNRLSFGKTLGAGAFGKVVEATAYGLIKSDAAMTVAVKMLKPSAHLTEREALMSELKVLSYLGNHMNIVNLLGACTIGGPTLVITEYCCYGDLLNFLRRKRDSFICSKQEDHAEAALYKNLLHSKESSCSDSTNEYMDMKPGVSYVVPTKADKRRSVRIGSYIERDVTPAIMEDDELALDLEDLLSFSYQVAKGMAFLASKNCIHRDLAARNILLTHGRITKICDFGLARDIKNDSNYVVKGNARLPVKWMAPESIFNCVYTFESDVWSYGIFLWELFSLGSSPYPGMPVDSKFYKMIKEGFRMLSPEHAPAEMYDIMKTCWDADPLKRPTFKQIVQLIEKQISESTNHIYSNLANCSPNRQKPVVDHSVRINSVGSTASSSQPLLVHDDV

RET = RET (Homo sapiens, UniProt P07949); experiment: RET kinase inhibition, Caliper screening (fluorescent substrate phosphorylation, electrophoretic separation); settings: for RET Fold: fold of IC50 relative to sunitinib
Chain of RET (P07949 29-1114, species assumed): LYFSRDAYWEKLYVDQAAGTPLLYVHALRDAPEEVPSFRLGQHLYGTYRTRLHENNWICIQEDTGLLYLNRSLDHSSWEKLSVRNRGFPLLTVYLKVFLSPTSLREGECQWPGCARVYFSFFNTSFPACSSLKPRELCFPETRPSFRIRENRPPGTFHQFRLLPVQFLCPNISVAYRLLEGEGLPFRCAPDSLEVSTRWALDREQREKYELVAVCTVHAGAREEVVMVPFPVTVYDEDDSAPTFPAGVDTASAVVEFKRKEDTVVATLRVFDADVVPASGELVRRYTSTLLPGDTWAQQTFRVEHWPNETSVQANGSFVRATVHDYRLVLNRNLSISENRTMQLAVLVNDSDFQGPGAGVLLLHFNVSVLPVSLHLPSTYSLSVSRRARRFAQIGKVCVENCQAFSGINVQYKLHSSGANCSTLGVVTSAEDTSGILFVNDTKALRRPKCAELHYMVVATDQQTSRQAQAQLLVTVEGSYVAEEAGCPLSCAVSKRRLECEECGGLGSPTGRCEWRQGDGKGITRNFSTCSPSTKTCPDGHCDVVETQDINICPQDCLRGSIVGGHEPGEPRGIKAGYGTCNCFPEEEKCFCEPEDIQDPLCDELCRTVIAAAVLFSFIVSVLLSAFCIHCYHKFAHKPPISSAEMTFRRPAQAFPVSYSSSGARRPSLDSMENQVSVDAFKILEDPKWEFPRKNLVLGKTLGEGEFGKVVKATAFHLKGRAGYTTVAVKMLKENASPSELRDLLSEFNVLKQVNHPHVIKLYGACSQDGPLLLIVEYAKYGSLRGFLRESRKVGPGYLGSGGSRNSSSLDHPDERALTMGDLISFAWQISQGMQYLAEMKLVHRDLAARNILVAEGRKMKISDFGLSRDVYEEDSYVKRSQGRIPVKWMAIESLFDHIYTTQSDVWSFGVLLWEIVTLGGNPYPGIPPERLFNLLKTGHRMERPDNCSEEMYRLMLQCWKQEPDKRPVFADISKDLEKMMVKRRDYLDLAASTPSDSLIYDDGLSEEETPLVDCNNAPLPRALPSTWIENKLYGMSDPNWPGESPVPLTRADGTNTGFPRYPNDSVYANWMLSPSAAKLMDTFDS

VEGFR-2 = VEGFR-2 (Homo sapiens, UniProt P35968); experiment: VEGFR-2 kinase inhibition, Caliper screening (fluorescent substrate phosphorylation, electrophoretic separation); settings: for VEGFR-2 Fold: fold of IC50 relative to sunitinib
Chain of VEGFR-2 (P35968 20-1356, species assumed): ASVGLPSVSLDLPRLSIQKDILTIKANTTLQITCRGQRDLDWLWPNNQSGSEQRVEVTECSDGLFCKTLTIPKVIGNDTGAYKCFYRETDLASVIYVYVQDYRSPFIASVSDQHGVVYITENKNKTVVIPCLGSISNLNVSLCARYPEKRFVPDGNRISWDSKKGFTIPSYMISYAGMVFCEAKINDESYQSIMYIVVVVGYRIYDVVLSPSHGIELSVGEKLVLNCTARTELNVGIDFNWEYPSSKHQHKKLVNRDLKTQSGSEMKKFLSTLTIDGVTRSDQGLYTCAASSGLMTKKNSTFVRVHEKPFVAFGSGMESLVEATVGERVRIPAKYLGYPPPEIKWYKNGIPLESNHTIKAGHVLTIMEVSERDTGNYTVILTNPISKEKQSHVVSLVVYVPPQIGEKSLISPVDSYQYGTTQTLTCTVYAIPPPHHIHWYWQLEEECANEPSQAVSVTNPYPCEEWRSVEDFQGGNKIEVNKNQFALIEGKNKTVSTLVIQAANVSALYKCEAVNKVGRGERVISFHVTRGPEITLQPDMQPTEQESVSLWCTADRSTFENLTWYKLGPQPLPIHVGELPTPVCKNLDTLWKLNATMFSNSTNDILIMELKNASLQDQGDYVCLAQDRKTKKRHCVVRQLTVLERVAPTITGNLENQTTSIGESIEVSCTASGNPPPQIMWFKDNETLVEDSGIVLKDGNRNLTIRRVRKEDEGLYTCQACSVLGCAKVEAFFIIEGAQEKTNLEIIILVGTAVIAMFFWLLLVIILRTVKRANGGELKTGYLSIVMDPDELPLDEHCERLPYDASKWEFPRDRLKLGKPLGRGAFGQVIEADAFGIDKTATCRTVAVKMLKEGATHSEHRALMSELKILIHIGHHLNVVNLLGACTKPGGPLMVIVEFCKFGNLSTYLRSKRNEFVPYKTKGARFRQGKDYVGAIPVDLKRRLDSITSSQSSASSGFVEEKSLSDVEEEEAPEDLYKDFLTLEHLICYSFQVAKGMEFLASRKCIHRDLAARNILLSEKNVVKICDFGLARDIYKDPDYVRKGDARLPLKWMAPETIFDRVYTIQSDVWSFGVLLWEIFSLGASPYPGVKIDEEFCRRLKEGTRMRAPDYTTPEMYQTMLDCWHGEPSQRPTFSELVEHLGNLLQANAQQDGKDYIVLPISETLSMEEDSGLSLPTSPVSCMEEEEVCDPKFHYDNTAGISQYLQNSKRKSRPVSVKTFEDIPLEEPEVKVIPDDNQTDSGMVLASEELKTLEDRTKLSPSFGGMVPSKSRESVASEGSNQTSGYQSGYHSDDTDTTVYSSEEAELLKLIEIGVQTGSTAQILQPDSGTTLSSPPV

[1] = concentration 1.0E−05 (unit not given)
[2] = concentration 1.0E−06 (unit not given)
[3] = concentration 1.0E−07 (unit not given)
[4] = concentration 1.0E−08 (unit not given)
[5] = concentration 1.0E−09 (unit not given)
[6] = concentration 1.0E−10 (unit not given)
[7] = concentration 3.0E−05 (unit not given)
[8] = concentration 3.0E−06 (unit not given)
[9] = concentration 3.0E−07 (unit not given)
[10] = concentration 3.0E−08 (unit not given)
[11] = concentration 3.0E−09 (unit not given)
[12] = concentration 3.0E−10 (unit not given)

IC50 (c-Kit): 120 nM
c-Kit AVG % Activity at Specific Concentration (c-Kit; [1]): −1%
c-Kit AVG % Activity at Specific Concentration (c-Kit; [2]): 2%
c-Kit AVG % Activity at Specific Concentration (c-Kit; [3]): 58%
c-Kit AVG % Activity at Specific Concentration (c-Kit; [4]): 97%
c-Kit AVG % Activity at Specific Concentration (c-Kit; [5]): 104%
c-Kit AVG % Activity at Specific Concentration (c-Kit; [6]): 100%
c-Kit AVG % Activity at Specific Concentration (c-Kit; [7]): −1%
c-Kit AVG % Activity at Specific Concentration (c-Kit; [8]): 1%
c-Kit AVG % Activity at Specific Concentration (c-Kit; [9]): 16%
c-Kit AVG % Activity at Specific Concentration (c-Kit; [10]): 88%
c-Kit AVG % Activity at Specific Concentration (c-Kit; [11]): 98%
c-Kit AVG % Activity at Specific Concentration (c-Kit; [12]): 102%
c-Kit Fold (c-Kit): 1.60
IC50 (RET): 230 nM
RET AVG % Activity at Specific Concentration (RET; [1]): −1%
RET AVG % Activity at Specific Concentration (RET; [2]): 12%
RET AVG % Activity at Specific Concentration (RET; [3]): 68%
RET AVG % Activity at Specific Concentration (RET; [4]): 96%
RET AVG % Activity at Specific Concentration (RET; [5]): 92%
RET AVG % Activity at Specific Concentration (RET; [6]): 92%
RET AVG % Activity at Specific Concentration (RET; [7]): −1%
RET AVG % Activity at Specific Concentration (RET; [8]): 3%
RET AVG % Activity at Specific Concentration (RET; [9]): 38%
RET AVG % Activity at Specific Concentration (RET; [10]): 90%
RET AVG % Activity at Specific Concentration (RET; [11]): 95%
RET AVG % Activity at Specific Concentration (RET; [12]): 94%
RET Fold (RET): 5.35
IC50 (VEGFR-2): 110 nM
VEGFR-2 AVG % Activity at Specific Concentration (VEGFR-2; [1]): −3%
VEGFR-2 AVG % Activity at Specific Concentration (VEGFR-2; [2]): 0%
VEGFR-2 AVG % Activity at Specific Concentration (VEGFR-2; [3]): 47%
VEGFR-2 AVG % Activity at Specific Concentration (VEGFR-2; [4]): 90%
VEGFR-2 AVG % Activity at Specific Concentration (VEGFR-2; [5]): 87%
VEGFR-2 AVG % Activity at Specific Concentration (VEGFR-2; [6]): 93%
VEGFR-2 AVG % Activity at Specific Concentration (VEGFR-2; [7]): −6%
VEGFR-2 AVG % Activity at Specific Concentration (VEGFR-2; [8]): −3%
VEGFR-2 AVG % Activity at Specific Concentration (VEGFR-2; [9]): 16%
VEGFR-2 AVG % Activity at Specific Concentration (VEGFR-2; [10]): 78%
VEGFR-2 AVG % Activity at Specific Concentration (VEGFR-2; [11]): 90%
VEGFR-2 AVG % Activity at Specific Concentration (VEGFR-2; [12]): 93%
VEGFR-2 Fold (VEGFR-2): 2.24
Compound: COCCOCCOCCNC(=O)c1c(C)[nH]c(/C=C2\C(=O)Nc3ccc(F)cc32)c1C [mPEG3-semaxanib, (Z)-5-((5-fluoro-2-oxoindolin-3-ylidene)methyl)-2,4-dimethyl-1H-pyrrole-3-mPEG3-amide]

IC50 (c-Kit): 170 nM
c-Kit AVG % Activity at Specific Concentration (c-Kit; [1]): −1%
c-Kit AVG % Activity at Specific Concentration (c-Kit; [2]): 3%
c-Kit AVG % Activity at Specific Concentration (c-Kit; [3]): 70%
c-Kit AVG % Activity at Specific Concentration (c-Kit; [4]): 97%
c-Kit AVG % Activity at Specific Concentration (c-Kit; [5]): 99%
c-Kit AVG % Activity at Specific Concentration (c-Kit; [6]): 97%
c-Kit AVG % Activity at Specific Concentration (c-Kit; [7]): −1%
c-Kit AVG % Activity at Specific Concentration (c-Kit; [8]): −1%
c-Kit AVG % Activity at Specific Concentration (c-Kit; [9]): 24%
c-Kit AVG % Activity at Specific Concentration (c-Kit; [10]): 94%
c-Kit AVG % Activity at Specific Concentration (c-Kit; [11]): 93%
c-Kit AVG % Activity at Specific Concentration (c-Kit; [12]): 100%
c-Kit Fold (c-Kit): 2.30
IC50 (RET): 350 nM
RET AVG % Activity at Specific Concentration (RET; [1]): 0%
RET AVG % Activity at Specific Concentration (RET; [2]): 22%
RET AVG % Activity at Specific Concentration (RET; [3]): 78%
RET AVG % Activity at Specific Concentration (RET; [4]): 99%
RET AVG % Activity at Specific Concentration (RET; [5]): 89%
RET AVG % Activity at Specific Concentration (RET; [6]): 100%
RET AVG % Activity at Specific Concentration (RET; [7]): −1%
RET AVG % Activity at Specific Concentration (RET; [8]): 5%
RET AVG % Activity at Specific Concentration (RET; [9]): 52%
RET AVG % Activity at Specific Concentration (RET; [10]): 95%
RET AVG % Activity at Specific Concentration (RET; [11]): 100%
RET AVG % Activity at Specific Concentration (RET; [12]): 99%
RET Fold (RET): 8.14
IC50 (VEGFR-2): 180 nM
VEGFR-2 AVG % Activity at Specific Concentration (VEGFR-2; [1]): −4%
VEGFR-2 AVG % Activity at Specific Concentration (VEGFR-2; [2]): 12%
VEGFR-2 AVG % Activity at Specific Concentration (VEGFR-2; [3]): 56%
VEGFR-2 AVG % Activity at Specific Concentration (VEGFR-2; [4]): 88%
VEGFR-2 AVG % Activity at Specific Concentration (VEGFR-2; [5]): 92%
VEGFR-2 AVG % Activity at Specific Concentration (VEGFR-2; [6]): 86%
VEGFR-2 AVG % Activity at Specific Concentration (VEGFR-2; [7]): −6%
VEGFR-2 AVG % Activity at Specific Concentration (VEGFR-2; [8]): −4%
VEGFR-2 AVG % Activity at Specific Concentration (VEGFR-2; [9]): 35%
VEGFR-2 AVG % Activity at Specific Concentration (VEGFR-2; [10]): 89%
VEGFR-2 AVG % Activity at Specific Concentration (VEGFR-2; [11]): 96%
VEGFR-2 AVG % Activity at Specific Concentration (VEGFR-2; [12]): 97%
VEGFR-2 Fold (VEGFR-2): 3.67
Compound: COCCOCCOCCOCCNC(=O)c1c(C)[nH]c(/C=C2\C(=O)Nc3ccc(F)cc32)c1C [mPEG4-semaxanib, (Z)-5-((5-fluoro-2-oxoindolin-3-ylidene)methyl)-2,4-dimethyl-1H-pyrrole-3-mPEG4-amide]
